Experimental data reported in patent US9464084B2, “P2X7 modulators” (Janssen Pharmaceutica NV, priority 2013, dated 2016).

Target: P2X7 (Homo sapiens (Human), UniProt Q99572)
Assay: P2X7 antagonism in human PBMCs (LPS + Bz-ATP induced IL-1β release, ELISA);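 also: PBMCs from donor human blood, with a further 1.5 h incubation of the cells in the assay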
Type: cell-based
Details: compound 1 μM, LPS 30 ng/ml, Bz-ATP 0.5 mM

Sequence of P2X7 (Q99572 whole entry): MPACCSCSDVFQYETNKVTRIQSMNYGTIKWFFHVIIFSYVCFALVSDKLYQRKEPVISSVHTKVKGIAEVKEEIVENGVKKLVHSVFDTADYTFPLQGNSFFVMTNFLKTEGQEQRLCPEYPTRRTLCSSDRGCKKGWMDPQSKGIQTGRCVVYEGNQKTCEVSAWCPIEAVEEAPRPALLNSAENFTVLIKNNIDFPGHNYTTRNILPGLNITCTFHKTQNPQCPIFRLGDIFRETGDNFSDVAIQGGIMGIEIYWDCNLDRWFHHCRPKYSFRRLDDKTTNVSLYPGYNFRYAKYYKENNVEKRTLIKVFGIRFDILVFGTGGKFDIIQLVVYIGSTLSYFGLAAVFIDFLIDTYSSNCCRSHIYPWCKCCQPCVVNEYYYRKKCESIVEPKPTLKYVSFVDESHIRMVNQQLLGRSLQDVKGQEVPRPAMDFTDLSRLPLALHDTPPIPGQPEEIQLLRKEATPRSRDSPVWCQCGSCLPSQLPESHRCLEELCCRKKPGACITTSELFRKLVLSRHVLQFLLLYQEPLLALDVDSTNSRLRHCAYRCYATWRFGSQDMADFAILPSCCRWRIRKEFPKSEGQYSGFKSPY

Row | PBMC 1 μM (% control) | SMILES
1 | 98.7 | O=C(c1cccc(C(F)(F)F)c1Cl)N1CCc2c(ncn2-c2cc(F)cc(F)c2)C1 [Example 7, (2-Chloro-3-(trifluoromethyl)phenyl)(1-(3,5-difluorophenyl)-6,7-dihydro-1H-imidazo[4,5-c]pyridin-5(4H)-yl)methanone]
2 | 96.0 | O=C(c1cccc2c1OC(F)(F)O2)N1CCc2c(ncn2-c2ccccc2)C1 [Example 50, 5-[(2,2-Difluoro-1,3-benzodioxol-4-yl)carbonyl]-1-phenyl-4,5,6,7-tetrahydro-1H-imidazo[4,5-c]pyridine]

Same assay, conditions: compound 10 μM, LPS 30 ng/ml, Bz-ATP 0.5 mM

Row | SMILES | PBMC 10 μM (% control)
3 | C[C@H]1c2ncn(-c3ccccn3)c2CCN1C(=O)c1cccc(C(F)(F)F)c1F (single isomer, unassigned) [Example 43, (4 S*)-5-{[2-Fluoro-3-(trifluoromethyl)phenyl]carbonyl}-4-methyl-1-pyridin-2-yl-4,5,6,7-tetrahydro-1H-imidazo[4,5-c]pyridine] | 77.8
4 | CC1Cc2c(nnn2-c2ccccc2)CN1C(=O)c1cccc(C(F)(F)F)c1Cl (centres unmarked) [Example 290, (2-chloro-3-(trifluoromethyl)phenyl)(6-methyl-1-phenyl-6,7-dihydro-1H-[1,2,3]triazolo[4,5-c]pyridin-5(4H)-yl)methanone] | −11.2
5 | C[C@@H]1Cc2c(nnn2-c2ccn[nH]2)[C@@H](C)N1C(=O)c1cccc(C(F)(F)F)c1Cl [Example 296, (2-chloro-3-(trifluoromethyl)phenyl)((4R,6R)-4,6-dimethyl-1-(1H-pyrazol-5-yl)-6,7-dihydro-1H-[1,2,3]triazolo[4,5-c]pyridin-5(4H)-yl)methanone] | 3.6

Next, values leading:

Row | PBMC 10 μM (% control) | SMILES
6 | 17.4 | C[C@H]1Cc2c(nnn2-c2cnccn2)CN1C(=O)c1cccc(C(F)(F)F)c1Cl (single isomer, unassigned) [Example 212, (6S*)-5-{[2-Chloro-3-(trifluoromethyl)phenyl]carbonyl}-6-methyl-1-pyrazin-2-yl-4,5,6,7-tetrahydro-1H-[1,2,3]triazolo[4,5-c]pyridine]
7 | 0.1 | C[C@H]1Cc2c(nnn2-c2ncc(F)cn2)CN1C(=O)c1ccnc(C(F)(F)F)c1F (single isomer, unassigned) [Example 228, (S*)-(3-fluoro-2-(trifluoromethyl)pyridin-4-yl)(1-(5-fluoropyrimidin-2-yl)-6-methyl-6,7-dihydro-1H-[1,2,3]triazolo[4,5-c]pyridin-5(4H)-yl)methanone]
8 | 60.8 | C[C@@H]1Cc2c(nnn2-c2ncc(F)cn2)CN1C(=O)c1ccc(Cl)c(F)c1Cl (single isomer, unassigned) [Example 217, (6R*)-5-[(2,4-Dichloro-3-fluorophenyl)carbonyl]-1-(5-fluoropyrimidin-2-yl)-6-methyl-4,5,6,7-tetrahydro-1H-[1,2,3]triazolo[4,5-c]pyridine]
9 | 24.1 | C[C@H]1Cc2c(nnn2-c2ncc(F)cn2)CN1C(=O)c1cccc(C(F)(F)F)c1Cl (single isomer, unassigned) [Example 202, (6S*)-5-{[2-Chloro-3-(trifluoromethyl)phenyl]carbonyl}-1-(5-fluoropyrimidin-2-yl)-6-methyl-4,5,6,7-tetrahydro-1H-[1,2,3]triazolo[4,5-c]pyridine]
10 | 15.1 | C[C@H]1Cc2c(nnn2-c2ncc(F)cn2)CN1C(=O)c1cccc(C(F)(F)F)c1F [Example 220, (6S)-1-(5-Fluoropyrimidin-2-yl)-5-{[2-fluoro-3-(trifluoromethyl)phenyl]carbonyl}-6-methyl-4,5,6,7-tetrahydro-1H-[1,2,3]triazolo[4,5-c]pyridine]
11 | −1.2 | C[C@H]1Cc2c(nnn2-c2ncc(F)cn2)CN1C(=O)c1ccnc(C(F)(F)F)c1Cl (single isomer, unassigned) [Example 183, (R*)-(3-chloro-2-(trifluoromethyl)pyridin-4-yl)(1-(5-fluoropyrimidin-2-yl)-6-methyl-6,7-dihydro-1H-[1,2,3]triazolo[4,5-c]pyridin-5(4H)-yl)methanone]
